Assay results taken from paper PMC10539361, “Allosteric modulation of the fish taste receptor type 1 (T1R) family by the extracellular chloride ion” (Scientific Reports, 2023).

How the values were obtained:
mfT1R2a K265A/mfT1R3 = mfT1R2a K265A/mfT1R3 (Oryzias latipes, UniProt Q2MHK2+Q2MHK5, Q2MHK5:K265A); assay: cell-based; details: EC50, [Cl-]o=10 mM; no unit printed with values, x-axis title L-Gln [M]
Experimental: (§1) The buffers with lower Cl^− were prepared by progressively replacing NaCl, KCl, CaCl2 and MgCl2 in the buffer with gluconate equivalents[20]. The pH was adjusted to 7.4 with NaOH. Ligands were diluted with the assay buffers at the desired concentrations.
(§2) Measurements of the responses of the cells by cell-based assay based on the intracellular Ca^2+ mobilization were carried out as described previously with some modifications[20],[34],[46],[47]. […] The cells were seeded in 96-well plates (clear-bottomed CellBIND surface plate, Corning, Glendale, AZ, USA) coated with ε-poly-L-lysine (Cosmo Bio, Tokyo, Japan) at approximately 70,000 cells per well. After 20 h, the medium was removed and replaced with high Cl^− buffer. […] Fluorescence changes (i.e., excitation at 485 nm and emission at 525 nm with a cutoff at 515 nm) were monitored at 2 s intervals. […] The response of each well was determined as ∆RFU (delta relative fluorescent units), which was calculated as (maximum fluorescent value)—(minimum fluorescent value). […] Dose‒response fitting curves were calculated by Prism 9 (GraphPad Software, San Diego, CA) using nonlinear regression (log(agonist) vs. response—variable slope), based on the integrated data from the several independent experiments.

mfT1R2a K295P/mfT1R3 = mfT1R2a K295P/mfT1R3 (Oryzias latipes, UniProt Q2MHK2+Q2MHK5, Q2MHK5:K295P); assay: cell-based; details: EC50, [Cl-]o=10 mM; no unit printed with values, x-axis title L-Gln [M]
Experimental: as §1
(§3) Measurements of the responses of the cells by cell-based assay based on the intracellular Ca^2+ mobilization were carried out as described previously with some modifications[20],[34],[46],[47]. Cell lines stably expressing T1R2, T1R3 and chimeric G-protein α-subunit, G16gust44[48], were constructed using the Flp-In pcDNA5/FRT complete system (Thermo Fisher Scientific, Waltham, MA, USA) described in our previous studies[34],[46]. […] Fluorescence changes (i.e., excitation at 485 nm and emission at 525 nm with a cutoff at 515 nm) were monitored at 2 s intervals. […] The response of each well was determined as ∆RFU (delta relative fluorescent units), which was calculated as (maximum fluorescent value)—(minimum fluorescent value). […] Dose‒response fitting curves were calculated by Prism 9 (GraphPad Software, San Diego, CA) using nonlinear regression (log(agonist) vs. response—variable slope), based on the integrated data from the several independent experiments.

mfT1R2a/mfT1R3 T105E = mfT1R2a/mfT1R3 T105E (Oryzias latipes, UniProt Q2MHK2+Q2MHK5, Q2MHK2:T105E); assay: cell-based; details: EC50, [Cl-]o=10 mM; unit inferred
Experimental: as §1, §3

mfT1R2a K265E/mfT1R3 = mfT1R2a K265E/mfT1R3 (Oryzias latipes, UniProt Q2MHK2+Q2MHK5, Q2MHK5:K265E); assay: cell-based; details: EC50, [Cl-]o=10 mM; no unit printed with values, x-axis title L-Gln [M]
Experimental: as §1, §3

mfT1R2a/mfT1R3 = target: T1, mfT1R2a/mfT1R3 (Oryzias latipes, UniProt Q2MHK2+Q2MHK5); assay: Ca2+ mobilization dose-response assay, stable cells expressing mfT1R2a/mfT1R3 with G16gust44
T1 sequence (Q2MHK5 20-819): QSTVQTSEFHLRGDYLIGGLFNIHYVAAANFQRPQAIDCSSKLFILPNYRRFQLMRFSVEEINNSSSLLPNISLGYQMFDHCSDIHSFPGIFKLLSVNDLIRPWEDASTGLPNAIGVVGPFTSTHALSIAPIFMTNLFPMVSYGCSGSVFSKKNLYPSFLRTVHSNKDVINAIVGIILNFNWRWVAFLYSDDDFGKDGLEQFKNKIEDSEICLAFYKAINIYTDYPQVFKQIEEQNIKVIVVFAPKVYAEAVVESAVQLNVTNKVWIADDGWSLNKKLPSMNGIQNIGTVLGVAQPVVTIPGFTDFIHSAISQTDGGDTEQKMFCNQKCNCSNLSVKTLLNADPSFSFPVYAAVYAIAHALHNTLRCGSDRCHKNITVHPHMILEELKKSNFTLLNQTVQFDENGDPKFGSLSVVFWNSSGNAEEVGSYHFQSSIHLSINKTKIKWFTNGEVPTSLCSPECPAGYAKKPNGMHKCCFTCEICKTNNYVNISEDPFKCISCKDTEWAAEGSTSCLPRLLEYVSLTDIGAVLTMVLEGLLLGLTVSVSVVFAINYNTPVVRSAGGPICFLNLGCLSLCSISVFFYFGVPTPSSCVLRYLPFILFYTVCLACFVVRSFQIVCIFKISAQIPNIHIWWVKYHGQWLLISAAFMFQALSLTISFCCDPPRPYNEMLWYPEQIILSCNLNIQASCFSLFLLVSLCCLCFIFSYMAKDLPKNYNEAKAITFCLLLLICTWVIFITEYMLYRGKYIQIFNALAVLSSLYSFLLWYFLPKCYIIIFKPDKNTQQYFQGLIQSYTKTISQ
T1 sequence (Q2MHK2 20-853): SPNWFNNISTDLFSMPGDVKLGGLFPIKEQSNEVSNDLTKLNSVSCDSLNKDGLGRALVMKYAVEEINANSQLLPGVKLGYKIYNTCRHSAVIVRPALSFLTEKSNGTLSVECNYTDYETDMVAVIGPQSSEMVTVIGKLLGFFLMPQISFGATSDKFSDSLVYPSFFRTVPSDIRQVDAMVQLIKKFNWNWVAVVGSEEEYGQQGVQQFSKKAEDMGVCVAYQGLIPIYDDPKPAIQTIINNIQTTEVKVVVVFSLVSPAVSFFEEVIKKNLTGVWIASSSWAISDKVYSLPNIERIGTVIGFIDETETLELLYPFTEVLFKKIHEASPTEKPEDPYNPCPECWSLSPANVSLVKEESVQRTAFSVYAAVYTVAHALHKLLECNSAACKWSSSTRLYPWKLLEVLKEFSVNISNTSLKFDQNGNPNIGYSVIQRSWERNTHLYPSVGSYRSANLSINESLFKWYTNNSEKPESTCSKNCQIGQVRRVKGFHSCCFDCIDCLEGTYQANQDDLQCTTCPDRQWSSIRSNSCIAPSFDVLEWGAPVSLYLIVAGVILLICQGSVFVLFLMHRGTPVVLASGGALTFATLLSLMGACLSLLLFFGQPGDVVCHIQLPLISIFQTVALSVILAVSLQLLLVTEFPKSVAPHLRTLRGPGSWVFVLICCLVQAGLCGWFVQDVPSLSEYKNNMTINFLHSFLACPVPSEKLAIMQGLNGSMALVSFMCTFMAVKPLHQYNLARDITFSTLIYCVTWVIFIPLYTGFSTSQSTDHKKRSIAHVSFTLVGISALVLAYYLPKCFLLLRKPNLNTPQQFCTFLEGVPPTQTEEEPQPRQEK
Experimental: as §1
(§4) Measurements of the responses of the cells by cell-based assay based on the intracellular Ca^2+ mobilization were carried out as described previously with some modifications[20],[34],[46],[47]. […] The cells were seeded in 96-well plates (clear-bottomed CellBIND surface plate, Corning, Glendale, AZ, USA) coated with ε-poly-L-lysine (Cosmo Bio, Tokyo, Japan) at approximately 70,000 cells per well. After 20 h, the medium was removed and replaced with high Cl^− buffer. After 3 h 30 min incubation at 27 °C, cells were loaded with 5 µM calcium-indicator dye Fluo-8 AM (AAT Bioquest, Sunnyvale, CA, USA) diluted in high Cl^− buffer. After incubation for 30 min at 27 °C, the cells were washed with buffers containing appropriate concentrations of Cl^−. The cellular assay was initiated after 3–5 min of resting and was completed within 5 min. The measurements were made using FlexStation 3 (Molecular Devices, Sunnyvale, CA, USA) at 27 °C. Fluorescence changes (i.e., excitation at 485 nm and emission at 525 nm with a cutoff at 515 nm) were monitored at 2 s intervals. A 100-µL aliquot of assay buffer supplemented with 2 × ligands was added at 20 s, and scanning was continued for an additional 40 s. The response of each well was determined as ∆RFU (delta relative fluorescent units), which was calculated as (maximum fluorescent value)—(minimum fluorescent value). […] Such normalized data from more than three independent experiments are reported as the mean ± standard error of the mean (SEM). Dose‒response fitting curves were calculated by Prism 9 (GraphPad Software, San Diego, CA) using nonlinear regression (log(agonist) vs. response—variable slope), based on the integrated data from the several independent experiments.

mfT1R2c/mfT1R3 T105E = mfT1R2c/mfT1R3 T105E (Oryzias latipes, UniProt Q2MHK2+Q2MHK3, Q2MHK2:T105E); assay: cell-based; details: EC50, [Cl-]o=10 mM; unit inferred
Experimental: as §1, §2

zfT1R2b/zfT1R3 = target: T2, zfT1R2b/zfT1R3 (Danio rerio, UniProt A0A8M1NDZ5+Q2MHK9); assay: Ca2+ mobilization dose-response assay, stable cells expressing zfT1R2b/zfT1R3 with G16gust44; details: 10 mM vs 141.4 mM Cl- buffer
T2 sequence (A0A8M1NDZ5 18-823): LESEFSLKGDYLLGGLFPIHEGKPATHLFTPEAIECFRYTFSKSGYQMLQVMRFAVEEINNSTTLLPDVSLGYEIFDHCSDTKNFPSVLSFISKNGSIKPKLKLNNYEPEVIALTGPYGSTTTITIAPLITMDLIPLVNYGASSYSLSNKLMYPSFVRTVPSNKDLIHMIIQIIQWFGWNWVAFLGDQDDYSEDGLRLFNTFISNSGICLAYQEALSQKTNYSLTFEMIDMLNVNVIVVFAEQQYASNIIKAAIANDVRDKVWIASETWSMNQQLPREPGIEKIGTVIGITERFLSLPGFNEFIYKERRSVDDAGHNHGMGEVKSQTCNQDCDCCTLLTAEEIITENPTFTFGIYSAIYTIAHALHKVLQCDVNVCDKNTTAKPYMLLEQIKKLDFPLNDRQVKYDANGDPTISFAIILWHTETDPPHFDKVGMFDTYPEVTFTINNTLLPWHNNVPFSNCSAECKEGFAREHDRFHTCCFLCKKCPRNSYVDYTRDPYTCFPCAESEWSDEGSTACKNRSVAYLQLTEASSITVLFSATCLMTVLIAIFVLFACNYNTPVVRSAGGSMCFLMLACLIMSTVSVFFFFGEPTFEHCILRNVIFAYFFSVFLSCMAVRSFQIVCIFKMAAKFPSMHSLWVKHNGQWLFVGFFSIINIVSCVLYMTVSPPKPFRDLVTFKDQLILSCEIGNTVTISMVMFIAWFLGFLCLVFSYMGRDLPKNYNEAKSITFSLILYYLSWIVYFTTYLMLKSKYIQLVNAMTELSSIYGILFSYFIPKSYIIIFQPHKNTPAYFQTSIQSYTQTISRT
T2 sequence (Q2MHK9 25-850): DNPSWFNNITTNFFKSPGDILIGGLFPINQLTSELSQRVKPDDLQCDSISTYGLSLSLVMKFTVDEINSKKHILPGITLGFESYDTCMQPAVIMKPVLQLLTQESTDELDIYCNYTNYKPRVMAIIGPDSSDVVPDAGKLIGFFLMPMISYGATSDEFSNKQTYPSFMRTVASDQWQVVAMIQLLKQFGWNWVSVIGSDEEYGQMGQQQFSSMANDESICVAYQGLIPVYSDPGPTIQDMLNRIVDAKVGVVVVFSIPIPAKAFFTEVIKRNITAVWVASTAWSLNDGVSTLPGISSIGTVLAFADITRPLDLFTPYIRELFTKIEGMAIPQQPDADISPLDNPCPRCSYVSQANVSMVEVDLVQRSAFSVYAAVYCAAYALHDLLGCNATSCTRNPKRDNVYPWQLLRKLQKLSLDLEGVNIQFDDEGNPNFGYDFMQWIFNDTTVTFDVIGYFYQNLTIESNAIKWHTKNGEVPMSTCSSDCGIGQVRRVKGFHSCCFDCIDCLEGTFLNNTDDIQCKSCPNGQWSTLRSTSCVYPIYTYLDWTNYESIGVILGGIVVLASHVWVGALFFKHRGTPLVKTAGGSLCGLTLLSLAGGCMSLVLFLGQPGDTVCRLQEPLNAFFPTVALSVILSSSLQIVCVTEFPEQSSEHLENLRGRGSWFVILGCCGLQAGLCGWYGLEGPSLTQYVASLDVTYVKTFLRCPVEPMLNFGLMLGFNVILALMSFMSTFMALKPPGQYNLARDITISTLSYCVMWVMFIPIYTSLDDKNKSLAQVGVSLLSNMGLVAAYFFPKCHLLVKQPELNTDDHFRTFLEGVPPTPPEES
Experimental: as §1, §4

mfT1R2c/mfT1R3 = mfT1R2c/mfT1R3 (Oryzias latipes, UniProt Q2MHK2+Q2MHK3); assay: Ca2+ mobilization dose-response assay, stable cells expressing mfT1R2c/mfT1R3 with G16gust44
Experimental: as §1, §4

zfT1R2a/zfT1R3 = target: T3, zfT1R2a/zfT1R3 (Danio rerio, UniProt A0A8M1N8F9+Q2MHK9); assay: Ca2+ mobilization dose-response assay, stable cells expressing zfT1R2a/zfT1R3 with G16gust44
T3 sequence (A0A8M1N8F9 26-825): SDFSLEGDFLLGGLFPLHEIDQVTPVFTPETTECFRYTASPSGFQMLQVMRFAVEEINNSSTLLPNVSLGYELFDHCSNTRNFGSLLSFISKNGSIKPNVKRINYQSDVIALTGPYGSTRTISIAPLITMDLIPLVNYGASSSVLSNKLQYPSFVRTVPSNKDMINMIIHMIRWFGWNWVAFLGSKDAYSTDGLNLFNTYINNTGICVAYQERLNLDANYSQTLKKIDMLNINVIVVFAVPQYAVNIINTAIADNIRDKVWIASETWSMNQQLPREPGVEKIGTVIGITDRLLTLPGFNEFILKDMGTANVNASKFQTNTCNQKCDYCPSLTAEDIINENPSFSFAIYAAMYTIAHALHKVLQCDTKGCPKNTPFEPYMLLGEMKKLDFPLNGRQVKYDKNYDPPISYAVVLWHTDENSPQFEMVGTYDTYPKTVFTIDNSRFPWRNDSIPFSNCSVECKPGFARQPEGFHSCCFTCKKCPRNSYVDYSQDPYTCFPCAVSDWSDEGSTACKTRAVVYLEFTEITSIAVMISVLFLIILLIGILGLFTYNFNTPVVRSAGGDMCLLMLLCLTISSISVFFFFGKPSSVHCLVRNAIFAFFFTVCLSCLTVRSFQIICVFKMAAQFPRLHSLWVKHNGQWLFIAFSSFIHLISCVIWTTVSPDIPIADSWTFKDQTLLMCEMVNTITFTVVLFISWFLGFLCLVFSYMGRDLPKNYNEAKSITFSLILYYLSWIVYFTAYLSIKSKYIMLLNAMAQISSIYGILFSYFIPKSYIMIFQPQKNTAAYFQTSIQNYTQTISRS
T3 sequence (Q2MHK9 25-850): T2 sequence (Q2MHK9 25-850)
Experimental: as §1, §4

mfT1R2b/mfT1R3 = assay: Ca2+ mobilization dose-response assay, stable cells expressing mfT1R2b/mfT1R3 with G16gust44; details: 10 mM vs 141.4 mM Cl- buffer
Experimental: as §1, §2

mfT1R2b E260A/mfT1R3 = format: cell-based, medaka fish; details: 10 mM vs high Cl- buffer
Experimental: as §1, §2

mfT1R2b E260K/mfT1R3 = format: cell-based, medaka fish; details: 10 mM vs high Cl- buffer
Experimental: as §1, §2

[1] = EC50, [Cl-]o=10 mM, unit inferred

mfT1R2c/mfT1R3, sequence (Q2MHK3 22-818, one chain of several): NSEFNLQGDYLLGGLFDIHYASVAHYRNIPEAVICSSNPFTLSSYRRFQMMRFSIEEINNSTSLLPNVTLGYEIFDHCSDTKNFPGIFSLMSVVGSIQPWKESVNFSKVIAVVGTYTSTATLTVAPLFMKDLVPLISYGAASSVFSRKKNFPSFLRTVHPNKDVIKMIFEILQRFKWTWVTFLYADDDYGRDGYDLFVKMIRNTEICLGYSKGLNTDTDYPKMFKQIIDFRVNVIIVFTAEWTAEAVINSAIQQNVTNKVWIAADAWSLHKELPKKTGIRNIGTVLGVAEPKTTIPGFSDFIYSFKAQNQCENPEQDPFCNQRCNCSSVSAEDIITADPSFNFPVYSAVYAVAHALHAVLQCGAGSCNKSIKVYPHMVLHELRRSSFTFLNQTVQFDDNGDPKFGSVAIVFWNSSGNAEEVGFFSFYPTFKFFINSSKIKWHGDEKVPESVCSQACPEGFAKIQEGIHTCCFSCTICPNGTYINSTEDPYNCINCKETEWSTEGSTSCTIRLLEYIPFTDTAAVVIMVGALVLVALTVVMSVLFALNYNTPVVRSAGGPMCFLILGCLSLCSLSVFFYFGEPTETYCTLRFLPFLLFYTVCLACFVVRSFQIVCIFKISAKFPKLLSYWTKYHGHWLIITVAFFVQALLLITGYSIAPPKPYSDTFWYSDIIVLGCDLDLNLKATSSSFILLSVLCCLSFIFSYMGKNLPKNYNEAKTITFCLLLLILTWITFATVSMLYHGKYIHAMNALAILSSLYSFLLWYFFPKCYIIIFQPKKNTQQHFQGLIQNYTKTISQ
mfT1R2a/mfT1R3 T105E, sequence (Q2MHK2 entry or part of it T105E, one chain of several): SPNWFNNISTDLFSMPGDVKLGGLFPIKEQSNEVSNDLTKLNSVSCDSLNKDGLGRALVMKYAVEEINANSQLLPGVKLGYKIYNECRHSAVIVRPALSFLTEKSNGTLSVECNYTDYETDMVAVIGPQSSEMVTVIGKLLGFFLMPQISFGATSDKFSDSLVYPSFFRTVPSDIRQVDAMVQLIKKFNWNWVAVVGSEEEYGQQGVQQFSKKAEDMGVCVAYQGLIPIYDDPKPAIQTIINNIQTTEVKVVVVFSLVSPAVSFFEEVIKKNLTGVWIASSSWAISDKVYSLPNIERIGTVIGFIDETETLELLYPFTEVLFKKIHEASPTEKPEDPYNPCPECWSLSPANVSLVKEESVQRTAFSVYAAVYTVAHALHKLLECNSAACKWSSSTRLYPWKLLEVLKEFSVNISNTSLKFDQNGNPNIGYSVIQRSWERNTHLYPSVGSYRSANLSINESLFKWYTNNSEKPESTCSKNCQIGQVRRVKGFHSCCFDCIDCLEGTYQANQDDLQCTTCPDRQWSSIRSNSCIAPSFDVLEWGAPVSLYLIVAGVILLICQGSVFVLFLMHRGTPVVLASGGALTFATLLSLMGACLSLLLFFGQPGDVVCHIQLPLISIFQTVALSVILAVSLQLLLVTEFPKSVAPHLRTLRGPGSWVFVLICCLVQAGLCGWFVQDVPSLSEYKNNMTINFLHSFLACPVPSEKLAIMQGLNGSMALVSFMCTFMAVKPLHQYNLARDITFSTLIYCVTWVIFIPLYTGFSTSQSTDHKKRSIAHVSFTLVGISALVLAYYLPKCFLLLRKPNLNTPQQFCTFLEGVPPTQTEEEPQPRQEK
mfT1R2c/mfT1R3 T105E, sequence (Q2MHK2 entry or part of it T105E): as the sequence (Q2MHK2 entry or part of it T105E, one chain of several) above
mfT1R2c/mfT1R3 T105E, sequence (Q2MHK3 entry or part of it): as the sequence (Q2MHK3 22-818, one chain of several) above
mfT1R2a K265A/mfT1R3, sequence (Q2MHK5 entry or part of it K265A, one chain of several): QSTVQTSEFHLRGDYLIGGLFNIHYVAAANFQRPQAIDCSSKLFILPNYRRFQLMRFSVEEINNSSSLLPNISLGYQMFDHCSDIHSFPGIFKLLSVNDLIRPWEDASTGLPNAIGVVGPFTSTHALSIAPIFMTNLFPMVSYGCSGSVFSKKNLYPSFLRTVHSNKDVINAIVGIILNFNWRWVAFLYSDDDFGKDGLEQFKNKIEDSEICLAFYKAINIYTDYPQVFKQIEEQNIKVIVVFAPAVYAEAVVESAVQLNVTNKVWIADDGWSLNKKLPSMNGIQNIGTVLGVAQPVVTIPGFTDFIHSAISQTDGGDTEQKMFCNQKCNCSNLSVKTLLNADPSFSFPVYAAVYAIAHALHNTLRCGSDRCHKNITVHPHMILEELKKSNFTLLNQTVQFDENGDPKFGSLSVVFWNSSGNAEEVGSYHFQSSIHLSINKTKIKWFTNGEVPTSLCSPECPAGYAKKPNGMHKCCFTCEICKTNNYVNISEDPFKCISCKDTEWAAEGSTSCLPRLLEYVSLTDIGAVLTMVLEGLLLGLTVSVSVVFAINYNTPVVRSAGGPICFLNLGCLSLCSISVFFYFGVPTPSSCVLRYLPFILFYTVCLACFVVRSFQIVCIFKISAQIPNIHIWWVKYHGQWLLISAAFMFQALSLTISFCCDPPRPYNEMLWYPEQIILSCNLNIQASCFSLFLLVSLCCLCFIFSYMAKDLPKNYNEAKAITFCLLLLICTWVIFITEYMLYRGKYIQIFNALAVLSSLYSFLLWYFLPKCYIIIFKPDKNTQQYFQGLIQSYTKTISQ
mfT1R2a K295P/mfT1R3, sequence (Q2MHK5 entry or part of it K295P, one chain of several): as the sequence (Q2MHK5 entry or part of it K265A, one chain of several) above, with A246K, K276P counted along it
mfT1R2a K265E/mfT1R3, sequence (Q2MHK5 entry or part of it K265E, one chain of several): as the sequence (Q2MHK5 entry or part of it K265A, one chain of several) above, with A246E counted along it

`NC(=O)CC[C@H](N)C(=O)O` [L-Gln, L-glutamine] showed an EC50 (mfT1R2a K265A/mfT1R3) of 0.000283 M, an EC50 (mfT1R2a K295P/mfT1R3) of 0.000368 M and an EC50 (mfT1R2a/mfT1R3 T105E) of 864 µM. For the same compound, the EC50 (mfT1R2a K265E/mfT1R3) was 0.000208 M, the “EC50 in 10 mM Cl- buffer relative to high Cl- buffer” value (mfT1R2a/mfT1R3; 10 mM vs 141.4 mM Cl- buffer) was “approximately 6.5 times higher” and the EC50 (mfT1R2a/mfT1R3; [1]) was 403 µM.
`O=C(O)[C@@H]1CCCN1` [L-Pro, L-proline] was tested, and the EC50 (mfT1R2c/mfT1R3 T105E) was 26.3 µM, the “EC50 in 10 mM Cl- buffer relative to high Cl- buffer” value (zfT1R2b/zfT1R3) was “approximately half” and the “increase in EC50 in 10 mM Cl- buffer compared to high Cl- buffer” value (mfT1R2c/mfT1R3; 10 mM vs 141.4 mM Cl- buffer) was “approximately threefold increase”. The EC50 (mfT1R2c/mfT1R3; [1]) was 15 µM, the “change of EC50 value with [Cl-]o” value (mfT1R2c/mfT1R3; range from 10 to 80 mM [Cl-]o) was “almost unchanged” and the “EC50 in 10 mM Cl- buffer relative to high Cl- buffer” value (zfT1R2a/zfT1R3; 10 mM vs 141.4 mM Cl- buffer) was “approximately 5 times higher”. The EC50 (zfT1R2a/zfT1R3; [1]) was 437 µM, the “effect of anionic buffer composition on sensitivity” value (mfT1R2b/mfT1R3) was “hardly affected” and the “effect of [Cl-]o on sensitivity” value (mfT1R2b E260A/mfT1R3) was “hardly affected”. The “effect of [Cl-]o on sensitivity” value (mfT1R2b E260K/mfT1R3) was “hardly affected”.
